Laboratory results: patent US20240415819A1, “MACROCYCLIC COMPOUNDS AS PROTEASOME SUBUNIT BETA TYPE-5 INHIBITORS” (Lead Discovery Center GmbH, priority 2021, published 2024)

Key:
[1] = tested on: Hs 746T (human gastric carcinoma cell line); assay: 48 hr CTG viability assay, Hs 746T; assay type: cell-based; details: Hs746T, 48 hr CTG, read-out: Hs 746T IC50
Protocol: (§1) A viability assay was conducted for 48 hours to evaluate the inhibition of cancer cell growth by proteasome inhibitors. Briefly, the candidate cell line was plated with a 96-well plate following density of cells, respectively. 6×10^3 Cells/well for A2780 (human ovarian cancer cell line) and MDA-MB-468 (breast carcinoma), 8×10^3 Cells/well for Hs746T (human gastric carcinoma cell line), 1.1×10^4 Cells/well for MM1 S and RPMI 8226 (multiple myeloma). After 24 hours, the cells were treated with various concentrations of the compound (ranging from 0.0015 uM to 10 uM). […] After 48 hours of incubation at 37° C., 5% CO2 incubator, cells were analyzed for viability using the CellTiter-Glo Luminescent Cell Viability assay (Promega, Cat #G7570). All viability assays were performed in duplicate and Luminescence was read using an Envision (Perkin Elmer, USA). Data were analyzed using XLfit software. […] (human gastric carcinoma cell line), MM1 S (B lymphoblast cell line), and RPMI 8226 (B lymphocyte cell line, multiple myeloma). Inhibition is indicated as IC50 [nM] (“-”=not measured).

[2] = tested on: RPMI 8226 (B lymphocyte cell line, multiple myeloma); assay: 48 hr CTG viability assay, RPMI 8226; assay type: cell-based; details: Homo sapiens, RPMI-8226; 48 hr CTG; read-out: RPMI-8226 IC50
Protocol: as §1

[3] = target: T1, β5 subunit of the human constitutive proteasome (CPS) (Homo sapiens, UniProt P28074); assay: β5 inhibition assay, human constitutive proteasome (Suc-LLVY-AMC); assay type: biochemical; details: IC50 class, Suc-LLVY-AMC substrate
T1 construct: purchased Boston Biochem E-360
Protocol: The enzymatic activity of the β5 subunit of the human constitutive proteasome (CPS) is analyzed. In another assay, which differs from the assay of the human constitutive proteasome only in using the human immunoproteasome (IPS) the enzymatic activity of the β5 subunit of the human immunoproteasome (IPS) is analyzed. […] Inhibition is indicated as IC50 [nM] (“-”=not measured).

[4] = tested on: A549 (human lung carcinoma cell line); assay: Glo assay of A549 cells (Table 3; ProteasomeGlo plating scheme); assay type: cell-based; details: Homo sapiens; A549 cells; read-out: PGLo A549
Description: Inhibition is indicated as IC50 [nM] (“-”=not measured). […] • Chymotrypsin-Like Cell-Based Proteasome-GloTM Assay (Promega; […]) • Cell culture 384-well plates (Greiner BioOne; 781080) • Dispensing cassette, MultiDrop Standard tube dispensing cassette (Thermo Scientific; 24072670) • DPBS (Pan BioTech; P04-36500) • Cell culture 384-well plates (Greiner BioOne; 781080) • CPD source plate: diamond-shape plate (Labcyte; LP-0200) • Intermediate plate (Labcyte; P-05525) [table] • a. Remove the plates with cells from the incubator. • b. Take all the plates including the compound plate, intermediate plate and Staurosporine plate to the ECHO. • c. Click on “Open” in the ECHO software and select the protocol “QLI5_25ul_30 uM-Grenier”. • d. Follow the on-screen prompts and instructions once you click “Start” to insert the compound plate, intermediate plate and destination plates. • e. Change the final number of destination plates on the program. • f. Follow the on-screen prompts and instructions once you click “Start” to load the Staurosporine and destination plates. • g. Once all the compounds, DMSO and Staurosporine have been transferred, place the destination plates in a wet tissue box. • h. Place the destination plates back into the incubator and incubate at 37° C., 5% CO2 for 105 minutes. • i. Re-seal all the compound+Stauro diamond and intermediate plates and store in the dark. Chymotrypsin like ProteasomeGlo Assay • 1. Thaw the components of the ProteasomeGlo assay at room temperature including the ProteasomeGlo Buffer, the lyophilized Luciferin Detection Reagent and the Suc-LLVY-Glo Substrate. • 2. Reconstitute the Luciferin Detection Reagent in the amber coloured bottle by adding 50 ml of the ProteasomeGlo Buffer. • 3. Vortex the Suc-LLVY-Glo Substrate briefly to reconstitute the Substrate well. • 4. Spin down the Substrate and add 250 μl of the Substrate to the reconstituted Luciferin Detection Reagent from step 2. • 5. Briefly vortex the amber bottle with the mix to prepare a homogenous solution. • 6. Place the mix prepared in step 5 to sit at room temperature for 60 minutes. • 7. After 60 minutes, pipette 25 μl of the mix from step 5 into all wells with the cells. • 8. Shake the plates for 2-5 minutes to ensure the complete mixing of the ProteasomeGlo reagent with the cells. • 9. Leave the plates in the dark for 10-15 minutes. • 10. Measure the luminescence read-out using the Viktor and the protocol “Luminescence_384Well_0.2 sec”. (Note: The Protoeasome-GloTM Reagent (combined Proteasome-GloTM Substrate, Proteasome-GloTM Buffer and Luciferin Detection Reagent) can be stored at 4° C. or -20° C. for 1 month with minimal loss of activity.)

[5] = target: T2, β5 subunit of the human immunoproteasome (IPS) (Homo sapiens, UniProt P28062); assay: β5 inhibition assay, human immunoproteasome (Suc-LLVY-AMC); assay type: biochemical; details: IC50 class, Suc-LLVY-AMC substrate
T2 construct: purchased Boston Biochem E-370
Method in brief: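 β5 activity is read as liberated AMC fluorescence (355/460 nm) after 4 h dark reaction at RT with 22.6 μM Suc-LLVY-AMC, stopped by 1 μM bortezomib. Beforehand, 1 nM human IPS and compound sat 10 min at RT in HEPES pH 7.5 buffer containing NaCl, 0.02% SDS and DTT.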

[6] = tested on: MM1 S (B lymphoblast cell line); assay: 48 hr CTG viability assay, MM1S; assay type: cell-based; details: Homo sapiens, 48 hr CTG, read-out: MM1S IC50
Protocol: as §1

IC50 [1] [nM] | IC50 [2] [nM] | IC50 [3] [nM] | IC50 [4] [nM] | IC50 [5] [nM] | IC50 [6] [nM] | Structure (SMILES)
< 100 | < 100 | < 100 | < 100 | < 100 | < 100 | Cc1ccc2cc1CNC(=O)[C@H](CCc1ccccc1)NC(=O)[C@@H](NC(=O)CCN1CCCC1)CC(=O)N1CCCC(CCO2)C1 (stereo partly drawn) [Compound 668, N-((9S,12S)-5^4-methyl-8,11,14-trioxo-9-phenethyl-4-oxa-7,10-diaza-1(3,1)-piperidina-5(1,3)-benzenacyclotetradecaphane-12-yl)-3-(pyrrolidin-1-yl)propanamide]
< 100 | < 100 | < 100 | < 100 | < 100 | < 100 | Cc1ccc2cc1CNC(=O)[C@H](CCc1ccccc1)NC(=O)[C@@H](NC(=O)CCNC(=O)C1CC3CCC1C3)CC(=O)N1CCCC(CCO2)C1 (stereo partly drawn) [Compound 617, N-(3-(((9S,12S)-5^4-methyl-8,11,14-trioxo-9-phenethyl-4-oxa-7,10-diaza-1(3,1)-piperidina-5(1,3)-benzenacyclotetradecaphane-12-yl)amino)-3-oxopropyl)bicyclo[2.2.1]heptane-2-carboxamide]
– | < 100 | < 100 | < 100 | < 100 | < 100 | Cc1ccc2cc1CNC(=O)[C@H](CCc1ccccc1)NC(=O)[C@@H](NC(=O)C(C)(C)CF)CC(=O)N1CCCC(CCO2)C1 (stereo partly drawn) [Compound 650, 3-fluoro-2,2-dimethyl-N-((9S,12S)-5^4-methyl-8,11,14-trioxo-9-phenethyl-4-oxa-7,10-diaza-1(3,1)-piperidina-5(1,3)-benzenacyclotetradecaphane-12-yl)propanamide]
– | 1000 to 5000 | 1000 to 5000 | 1000 to 5000 | 100 to 500 | 100 to 500 | Cc1ccc2cc1CNC(=O)[C@H](CCc1ccccc1)NC(=O)[C@@H](N1CC(C)(C)NC1=O)CC(=O)N1CCCC(CCO2)C1 (stereo partly drawn) [Compound 733, (9S,12S)-12-(4,4-dimethyl-2-oxoimidazolidin-1-yl)-5^4-methyl-9-phenethyl-4-oxa-7,10-diaza-1(3,1)-piperidina-5(1,3)-benzenacyclotetradecaphane-8,11,14-trione]
< 100 | < 100 | < 100 | – | < 100 | < 100 | Cc1ccc2cc1CNC(=O)[C@H](CCc1ccccc1)NC(=O)[C@@H](NC(=O)CCOCCCC1CCCC1)CC(=O)N1CCCC(CCO2)C1 (stereo partly drawn) [Compound 692, 3-(3-cyclopentylpropoxy)-N-((9S,12S)-5^4-methyl-8,11,14-trioxo-9-phenethyl-4-oxa-7,10-diaza-1(3,1)-piperidina-5(1,3)-benzenacyclotetradecaphane-12-yl)propanamide]
< 100 | < 100 | – | – | – | < 100 | Cc1ccc2cc1CNC(=O)[C@H](CCc1ccccc1)NC(=O)[C@@H](NS(=O)(=O)C1CCCCC1)CC(=O)N1CCCC(CCO2)C1 (some centres unmarked) [Compound 579]
– | < 100 | < 100 | < 100 | < 100 | < 100 | Cc1ccc2cc1CNC(=O)[C@H](CCc1ccccc1)NC(=O)[C@@H](NC(=O)C1(CO)CCC1)CC(=O)N1CCCC(CCO2)C1 (stereo partly drawn) [Compound 670, 1-(hydroxymethyl)-N-((9S,12S)-5^4-methyl-8,11,14-trioxo-9-phenethyl-4-oxa-7,10-diaza-1(3,1)-piperidina-5(1,3)-benzenacyclotetradecaphane-12-yl)cyclobutane-1-carboxamide]
– | < 100 | < 100 | < 100 | < 100 | < 100 | Cc1ccc2cc1CNC(=O)[C@H](CCc1ccccc1)NC(=O)[C@@H](NC(=O)C(C)(C)CO)CC(=O)N1CCC[C@@H](CCO2)C1 [Compound 644, 3-hydroxy-2,2-dimethyl-N-((13S,9S,12S)-5^4-methyl-8,11,14-trioxo-9-phenethyl-4-oxa-7,10-diaza-1(3,1)-piperidina-5(1,3)-benzenacyclotetradecaphane-12-yl)propanamide]
– | < 100 | – | – | – | < 100 | Cc1ccc2cc1CNC(=O)[C@H](CCc1ccccc1)NC(=O)[C@@H](NC(=O)C(C)(C)CO)CC(=O)N1CCC[C@H](CCO2)C1 [Compound 573]
– | < 100 | < 100 | < 100 | < 100 | < 100 | Cc1ccc2cc1CNC(=O)[C@H](CCc1ccccc1)NC(=O)[C@@H](NC(=O)C(C)(C)CN)CC(=O)N1CCCC(CCO2)C1 (stereo partly drawn) [Compound 682, 3-amino-2,2-dimethyl-N-((9S,12S)-5^4-methyl-8,11,14-trioxo-9-phenethyl-4-oxa-7,10-diaza-1(3,1)-piperidina-5(1,3)-benzenacyclotetradecaphane-12-yl)propanamide]
< 100 | < 100 | – | – | – | < 100 | Cc1ccc2cc1CNC(=O)[C@H](CCc1ccccc1)NC(=O)[C@@H](NC(=O)CCOC1CC3(C1)CN(C(=O)OC(C)(C)C)C3)CC(=O)N1CCCC(CCO2)C1 (some centres unmarked) [Compound 577]
< 100 | < 100 | – | – | – | < 100 | Cc1ccc2cc1CNC(=O)[C@H](CCc1ccccc1)NC(=O)[C@@H](NC(=O)Cc1ccc(NC(=O)[C@@H](N)CC(=O)O)cc1C)CC(=O)N1CCCC(CCO2)C1 (some centres unmarked) [Compound 578]
– | < 100 | < 100 | – | < 100 | < 100 | Cc1ccc2cc1CNC(=O)[C@H](CCc1cccnc1)NC(=O)[C@@H](NC(=O)Cc1ccccc1F)CC(=O)N1CCCC(CCO2)C1 (stereo partly drawn) [Compound 600, 2-(2-fluorophenyl)-N-((9S,12S)-5^4-methyl-8,11,14-trioxo-9-(2-(pyridin-3-yl)ethyl)-4-oxa-7,10-diaza-1(3,1)-piperidina-5(1,3)-benzenacyclotetradecaphane-12-yl)acetamide]
– | < 100 | < 100 | < 100 | < 100 | < 100 | Cc1ccc2cc1CNC(=O)[C@H](CCc1ccccc1)NC(=O)[C@@H](NC(=O)C1(CO)CCCC1)CC(=O)N1CCCC(CCO2)C1 (stereo partly drawn) [Compound 689, 1-(hydroxymethyl)-N-((9S,12S)-5^4-methyl-8,11,14-trioxo-9-phenethyl-4-oxa-7,10-diaza-1(3,1)-piperidina-5(1,3)-benzenacyclotetradecaphane-12-yl)cyclopentane-1-carboxamide]
